The source of these data is paper PMC10491836, “Structural dynamics influences the antibacterial activity of a cell-penetrating peptide (KFF)3K” (Scientific Reports, 2023).

In brackets after ≈: the same amount, converted by molar mass. Like-named read-outs stand apart in the source and are kept apart here. Positions of bridges follow the written chain, without caps; N, C: chain ends. Non-standard residues stand in square brackets, D forms with d. Residues, ends and D or L forms follow the SMILES beside them. No end group written: not given here. S5 = C=CCCC[C@](C)(N)C(=O)O

Series [1] concerns E. coli 1841-06. Format: cell-based. The procedure:
(§1) The minimal inhibitory concentration (MIC) values were determined as follows. Bacteria were first cultured overnight in 2 mL of Lysogeny Broth (LB, VWR Chemicals) at 37 °C with shaking. Second, 20 µL of overnight culture was transferred into 2 mL of MHB medium and further cultured at 37 °C with shaking until the culture reached OD600 of 0.3. Third, the culture was diluted 1:100 in a fresh MHB medium and aliquots of 50 µL were mixed with 50 µL of the previously prepared dilutions of the tested compound in MHB on a transparent flat-bottom 96-well plate (Nest). The plate was then sealed with transparent foil (Titer-Tops) and incubated for 20 h, at 37 °C with shaking. Following incubation, OD at 600 nm was measured using the Tecan Sunrise plate reader. Growth inhibition was determined by comparing the given sample with untreated culture (Growth Control—GC) with MHB alone (Sterility Control—SC) as an additional reference. The experiment was performed in at least two biological replicates of two technical replicates each. Statistical significance was determined by a Two-way ANOVA test using GraphPad Prism 9.

The subject of series [2] is E. coli O157:H7 ST2-8624. It is filed as cell-based. The conditions noted are these: MHB, 20 h, 37 °C, OD600; at least two biological replicates of two technical replicates; tested up to 32 µM. Here is the method: as §1
Series [3] concerns Ps. aeruginosa ATCC 27853. It is filed as cell-based. The procedure: as §1
The test system of series [4] is S. aureus ATCC 29213. It is filed as cell-based. Here is the method: as §1
The subject of series [5] is S. aureus ATCC BAA1720 MRSA. It is filed as cell-based. Particulars: MHB, 20 h, 37 °C, OD600; methicillin-resistant strain; tested up to 32 µM. The procedure: as §1
The test system of series [6] is E. coli K12. Nature of the series: Antibacterial activity determination, MIC. It is filed as cell-based. The conditions noted are these: MHB, 20 h, 37 °C, OD600; reference non-pathogenic strain; tested up to 32 µM. The procedure: as §1
The test system of series [7] is E. coli 1841-06. Format: cell-based. Here is the method:
(§2) The minimal bactericidal concentration (MBC) values were determined, by diluting wells from the MIC experiment plate in fresh MHB medium. Dilutions of 10, 100, and 1000 times were prepared for the MIC well and up to two higher than MIC concentrations of the tested compound. Dilutions were made on a transparent flat-bottom 96-well plate (Nest) that was next sealed and incubated for 24 h, at 37 °C with shaking. Growth in a given sample well was compared with GC and SC controls.
The source holds these as a separate data set.

Series [8] concerns E. coli K12. Format: cell-based. Here is the method: as §2
Series [9] relates to E. coli O157:H7 ST2-8624. Format: cell-based. Particulars: wells of MIC plate diluted 10, 100, 1000 times in MHB, 24 h, 37 °C. The procedure: as §2
Series [10] concerns Ps. aeruginosa ATCC 27853. Format: cell-based. Here is the method: as §2
The source holds these as a separate data set.

For series [11], the system named is S. aureus ATCC 29213. Format: cell-based. The procedure:
as §2
This is another data set of the same source.

Series [12] deals with S. aureus ATCC BAA1720 MRSA. It is filed as cell-based. Here is the method:
as §2

Series [13] concerns various Gram-positive and Gram-negative strains. Nature of the series: MIC over the panel of strains (summary statements). Format: cell-based. Here is the method: as §1
Series [14] deals with Gram-positive and Gram-negative strains. The conditions noted are these: both Gram-positive and Gram-negative strains; cited from earlier work. An excerpt:
Furthermore, a single-point mutation of a peptide sequence can change its solely cell-penetrating ability into antimicrobial activity, or vice versa. It was shown that the incorporation of hydrophobic or cationic residues changed the character of a CPP into a more antibacterial one.

Series [15] has as its target T1, α-chymotrypsin from bovine pancreas (Bos taurus, UniProt P00766).
T1 construct: α-chymotrypsin from bovine pancreas; from tissue; host or cells: bovine pancreas
Nature of the series: in vitro. Format: in vitro ADME. Particulars: pH 8. The procedure:
(§3) The proteolytic stability of peptides was analyzed against α-chymotrypsin from bovine pancreas (3.4.21.1, ≥ 40 units/mg protein). Peptide solutions (340 µL) in ammonium bicarbonate buffer (0.1 M NH4HCO3, pH 8.0) were incubated with the appropriate amount of chymotrypsin at 37 °C with rapid shaking (600 rpm). Chymotrypsin and peptides were mixed in the 1:1333 ratio[47],[71]. Digestion mixture (60 µL) was taken at 4, 8, 12, 16, and 20 min and treated with 3 µL of 50% acetonitrile containing 1% TFA to stop the reaction and immediately store in ice. Peptide degradation was analyzed with RP-HPLC using the analytical method from 15 to 75% of acetonitrile in 30 min. Before the injection, the sample was diluted by adding 57 µL of ammonium bicarbonate buffer. 100 µL of the solution taken in each period was injected. The stabilities were quantified as the percentage of the peptide peak of area degradation. The total area of each peak was determined for experiments without chymotrypsin. Each experiment was performed twice on different days.

For a further series, the system named is T2, α-chymotrypsin.
T2 construct: α-chymotrypsin from bovine pancreas; from tissue; host or cells: bovine pancreas
Nature of the series: in vitro. It is filed as in vitro ADME, bovine. Particulars: isolated enzyme chymotrypsin, pH 8. Here is the method: as §3

[16] abbreviates: MHB, 20 h, 37 °C, OD600, tested up to 32 µM.
The mark [17] stands for this setting: wells of MIC plate diluted 10, 100, 1000 times in MHB, 24 h, 37 °C.

In the case of polymyxin B, the minimal inhibitory concentration (MIC) – broadly, the lowest concentration found to suppress growth – was 1 µM in the series on E. coli 1841-06 [1] (MHB, 20 h, 37 °C, OD600, β-lactam resistant strain, tested up to 32 µM); 0.5 to 1 µM in the series on E. coli O157:H7 ST2-8624 [2]; 1 µM in [3] (setting [16]); more than 32 µM with S. aureus ATCC 29213 [4] (setting [16]); more than 32 µM in series [5]; 0.125 µM in the series on E. coli K12 [6]. Also, the MBC (usually the smallest concentration meeting the test's criterion for killing) against E. coli 1841-06 [7] (setting [17]) is 1 µM; in the series on E. coli K12 [8] (setting [17]), 0.125 µM; in the series with E. coli O157:H7 ST2-8624 [9], 0.5 to 1 µM; in [10] (setting [17]), 1 µM; in the series with S. aureus ATCC 29213 [11] (setting [17]), more than 32 µM; in [12] (setting [17]), more than 32 µM. Also, in series [13] (Gram-positive strains, tested up to 32 µM), the antibacterial activity entry is on record as “not active”.

For “KETWWETWWTEWSQPKKKRKV [Pep-1, amphipathic cell-penetrating peptide quoted from the literature]”, the MIC in series [14] is 32 to 64 µM.

With `C[C@@]1(C(=O)N[C@@H](CCCCN)C(N)=O)CCCC=CCCC[C@](C)(NC(=O)[C@H](CCCCN)NC(=O)[C@H](Cc2ccccc2)NC(=O)[C@H](Cc2ccccc2)NC(=O)[C@@H](N)CCCCN)C(=O)N[C@@H](Cc2ccccc2)C(=O)N[C@@H](CCCCN)C(=O)N[C@@H](Cc2ccccc2)C(=O)N1` [(KFF)3K[5–9]] (H-KFFK[S5]FKF[S5]K-NH2; staple 5-9), the MIC was 4 µM (≈ 5.48 µg/mL) in the series on E. coli 1841-06 [1] (1841-06, 20 h); 8 µM (≈ 11 µg/mL) with E. coli O157:H7 ST2-8624 [2]; 4 µM (≈ 5.48 µg/mL) in series [3] (ATCC 27853, 20 h); 8 to 16 µM in the series on S. aureus ATCC 29213 [4] (ATCC 29213, 20 h); 16 µM (≈ 21.9 µg/mL) in series [5]; 2 µM (≈ 2.74 µg/mL) in the series with E. coli K12 [6]. Also, the MBC came to 8 µM (≈ 11 µg/mL) in the series on E. coli 1841-06 [7] (1841-06, 24 h); 2 µM (≈ 2.74 µg/mL) in the series on E. coli K12 [8] (K12, 24 h); 8 µM (≈ 11 µg/mL) with E. coli O157:H7 ST2-8624 [9]; 4 µM (≈ 5.48 µg/mL) in series [10] (ATCC 27853, 24 h); 16 µM (≈ 21.9 µg/mL) in the series with S. aureus ATCC 29213 [11] (ATCC 29213, 24 h); 32 µM (≈ 43.8 µg/mL) in [12] (ATCC BAA1720, 24 h). The “peptide remained undigested after incubation in chymotrypsin solution” value in series [15] was 90%.

With KFFKFFKFFK-NH2 [(KFF)3K], the MIC in the series on E. coli 1841-06 [1] (1841-06, 20 h) is more than 32 µM; in the series with E. coli O157:H7 ST2-8624 [2], 32 µM; in series [3] (ATCC 27853, 20 h), 32 µM; with S. aureus ATCC 29213 [4] (ATCC 29213, 20 h), more than 32 µM; in series [5] it was more than 32 µM; with E. coli K12 [6] it was 32 µM. This compound came in with an MIC in series [13] (all Gram-positive and Gram-negative strains tested) of more than 32 µM. Moreover, the MBC in the series with E. coli 1841-06 [7] (1841-06, 24 h) is on record as more than 32 µM; against E. coli K12 [8] (K12, 24 h) it was 32 µM; in the series on E. coli O157:H7 ST2-8624 [9], not below 32 µM; in [10] (ATCC 27853, 24 h), not below 32 µM; with S. aureus ATCC 29213 [11] (ATCC 29213, 24 h), more than 32 µM; in series [12] (ATCC BAA1720, 24 h), more than 32 µM. Besides, in the series with α-chymotrypsin, the metabolised at 20 min is 70%.

On to `C[C@@]1(C(=O)N[C@@H](CCCCN)C(=O)N[C@@H](Cc2ccccc2)C(=O)N[C@@H](Cc2ccccc2)C(=O)N[C@@H](CCCCN)C(N)=O)CCCC=CCCC[C@](C)(NC(=O)[C@@H](N)CCCCN)C(=O)N[C@@H](Cc2ccccc2)C(=O)N[C@@H](CCCCN)C(=O)N[C@@H](Cc2ccccc2)C(=O)N1` [(KFF)3K[2–6]] (H-K[S5]FKF[S5]KFFK-NH2; staple 2-6), for which the MIC against E. coli 1841-06 [1] (1841-06, 20 h) is 4 µM (≈ 5.48 µg/mL); against E. coli O157:H7 ST2-8624 [2] it was 4 µM (≈ 5.48 µg/mL); in [3] (ATCC 27853, 20 h), 4 to 8 µM; in the series on S. aureus ATCC 29213 [4] (ATCC 29213, 20 h) it was 16 µM (≈ 21.9 µg/mL); in series [5], 8 µM (≈ 11 µg/mL); in the series on E. coli K12 [6], 2 µM (≈ 2.74 µg/mL). Further, the MBC was 4 µM (≈ 5.48 µg/mL) against E. coli 1841-06 [7] (1841-06, 24 h); 2 µM (≈ 2.74 µg/mL) in the series with E. coli K12 [8] (K12, 24 h); 4 µM (≈ 5.48 µg/mL) in the series on E. coli O157:H7 ST2-8624 [9]; 8 µM (≈ 11 µg/mL) in series [10] (ATCC 27853, 24 h); 16 to 32 µM in the series with S. aureus ATCC 29213 [11] (ATCC 29213, 24 h); 16 to 32 µM in [12] (ATCC BAA1720, 24 h).
